# Test results taken from US20080161232A1, “C5a Receptor Antagonist” (JERINI AG, priority 2005, published 2008).
# Starred links: 1 amine or outer side, 2 acyl side, 3 side chain; linkers in the order of their positions; H or OH if unused. Positions of bridges follow the written chain, without caps; N, C: chain ends. Non-standard residues stand in square brackets, D forms with d. Residues, ends and D or L forms follow the SMILES beside them. *: point of attachment. Propanoyl(3,3-Ph2) = O=C(CC(c1ccccc1)c1ccccc1)*; Phe(4-tBu) = CC(C)(C)c1ccc(C[C@H](N)C(=O)O)cc1; Dip = N[C@H](C(=O)O)C(c1ccccc1)c1ccccc1; NMe2Phe = CN(C)[C@@H](Cc1ccccc1)C(=O)*; 1Nal = N[C@@H](Cc1cccc2ccccc12)C(=O)O; 2Nal = N[C@@H](Cc1ccc2ccccc2c1)C(=O)O; Bta = N[C@@H](Cc1csc2ccccc12)C(=O)O; NMeF = CN[C@@H](Cc1ccccc1)C(=O)O; 2Thi = N[C@@H](Cc1cccs1)C(=O)O; Cha = N[C@@H](CC1CCCCC1)C(=O)O; dCha = N[C@H](CC1CCCCC1)C(=O)O; NHPhenethyl = c1ccc(CCN*)cc1; X23 = O=C(CC(O)c1ccccc1)*; Nle = CCCC[C@H](N)C(=O)O; Orn = NCCC[C@H](N)C(=O)O; Aze = O=C(O)[C@@H]1CCN1; CO = O=C([*:1])[*:2]; NHBu = CCCCN*
# Biological target: T1, human C5aR(CD88) (Homo sapiens, UniProt P21730)
# T1 construct: expressed in transfected cells; host or cells: rat basophilic leukemia cells (RBL)
# T1 sequence (P21730 1-350): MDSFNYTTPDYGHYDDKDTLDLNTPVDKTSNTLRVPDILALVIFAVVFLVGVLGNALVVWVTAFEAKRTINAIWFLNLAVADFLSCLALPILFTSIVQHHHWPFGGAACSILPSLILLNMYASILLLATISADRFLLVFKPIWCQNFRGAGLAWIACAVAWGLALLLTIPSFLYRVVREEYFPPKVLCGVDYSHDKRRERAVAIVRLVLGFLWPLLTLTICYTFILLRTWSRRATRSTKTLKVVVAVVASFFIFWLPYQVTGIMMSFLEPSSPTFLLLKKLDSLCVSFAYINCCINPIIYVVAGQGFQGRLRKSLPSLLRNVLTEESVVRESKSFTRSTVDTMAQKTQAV
# Assay: Determination of the IC50 value in an enzyme release assay (functional assay, antagonistic activity)
# Format: cell-based
# Conditions: antagonistic activity; IC50 group in enzyme release assay, RBL cells expressing human C5aR(CD88); read-out: activity (group)
row,SMILES,IC50
1,CC(=O)N[C@@H](Cc1ccccc1)C(=O)N[C@H]1CCCNC(=O)[C@H](C)NC(=O)[C@H](Cc2c[nH]c3ccccc23)NC(=O)[C@@H](CC2CCCCC2)NC(=O)[C@@H]2CCCN2C1=O [Compound 39] (Ac-F[Orn]P[dCha]WA; lactam 2-C),> 2000 nM
2,"CC(=O)N[C@@H](Cc1ccccc1)C(=O)N[C@@H](CCCN)C(=O)N1CCC[C@H]1C(=O)N[C@H](CC1CCCCC1)C(=O)N[C@@H](Cc1c[nH]c2ccccc12)C(=O)N[C@@H](Cc1ccccc1)C(N)=O [Compound 51, Ac-Phe-Orn-Pro-cha-Trp-Phe-NH2] (Ac-F[Orn]P[dCha]WF-NH2)",20 to 50 nM
3,"CC(=O)N[C@@H](Cc1ccccc1)C(=O)N[C@@H](CCCN)C(=O)N1CC[C@H]1C(=O)N[C@H](CC1CCCCC1)C(=O)N[C@@H](Cc1csc2ccccc12)C(=O)N[C@@H](Cc1ccccc1)C(N)=O [Compound 52, Ac-Phe-Orn-Aze-cha-Bta-Phe-NH2] (Ac-F[Orn][Aze][dCha][Bta]F-NH2)",10 to 20 nM
4,"CCCC[C@@H]1NC(=O)[C@H](Cc2c[nH]c3ccccc23)NC(=O)[C@@H](CC2CCCCC2)NC(=O)[C@@H]2CCCN2C(=O)[C@@H](NCc2ccccc2)CCCNC1=O [Compound 56, Ph-CH2-[Orn-Pro-cha-Trp-Nle]]",20 to 50 nM
5,"O=C1NCCC[C@H](NCc2ccccc2)C(=O)N2CCC[C@H]2C(=O)N[C@H](CC2CCCCC2)C(=O)N[C@@H](Cc2c[nH]c3ccccc23)C(=O)N[C@H]1Cc1ccccc1 [Compound 57, Ph-CH2-[Orn-Pro-cha-Trp-Phe]]",20 to 50 nM
6,"CC(=O)N[C@@H](Cc1ccccc1)C(=O)N[C@H]1CCCNC(=O)[C@H](Cc2cccc3ccccc23)NC(=O)[C@H](Cc2c[nH]c3ccccc23)NC(=O)[C@@H](CC2CCCCC2)NC(=O)[C@@H]2CCCN2C1=O [Compound 58, Ac-Phe-[Orn-Pro-cha-Trp-1Ni]] (Ac-F[Orn]P[dCha]W[1Nal]; lactam 2-C)",20 to 50 nM
7,"CCCC[C@@H]1NC(=O)[C@H](Cc2c[nH]c3ccccc23)NC(=O)[C@@H](CC2CCCCC2)NC(=O)[C@@H]2CCCN2C(=O)[C@@H](NC(=O)CC(O)c2ccccc2)CCCNC1=O (stereo partly drawn) [Compound 59, Ph-CH(OH)—CH2—CO-[Orn-Pro-cha-Trp-Nle]] (X23-[Orn]P[dCha]W[Nle]; lactam 1-C)",20 to 50 nM
8,"CC(=O)N[C@@H](Cc1ccccc1)C(=O)N[C@@H](CCCN)C(=O)N1CCC[C@H]1C(=O)N[C@H](CC1CCCCC1)C(=O)N[C@@H](Cc1c[nH]c2ccccc12)C(=O)N[C@@H](Cc1ccc2ccccc2c1)C(N)=O [Compound 64, Ac-Phe-Orn-Pro-cha-Trp-2Ni—NH2] (Ac-F[Orn]P[dCha]W[2Nal]-NH2)",20 to 50 nM
9,"CC(=O)N[C@@H](Cc1ccccc1)C(=O)N[C@@H](CCCN)C(=O)N1CCC[C@H]1C(=O)N[C@H](CC1CCCCC1)C(=O)N[C@@H](Cc1c[nH]c2ccccc12)C(=O)N[C@@H](CC1CCCCC1)C(N)=O [Compound 65, Ac-Phe-Orn-Pro-cha-Trp-Cha-NH2] (Ac-F[Orn]P[dCha]W[Cha]-NH2)",50 to 200 nM
10,"CC(=O)N[C@@H](Cc1ccccc1)C(=O)N[C@@H](CCCN)C(=O)N1CCC[C@H]1C(=O)N[C@H](CC1CCCCC1)C(=O)N[C@@H](Cc1c[nH]c2ccccc12)C(=O)NCCc1ccccc1 [Compound 72, Ac-Phe-Orn-Pro-cha-Trp-NH—CH2—CH2-Ph] (Ac-F[Orn]P[dCha]W-NHPhenethyl)",200 to 2000 nM
11,"CC(=O)N[C@@H](Cc1ccccc1)C(=O)N[C@@H](CCCN)C(=O)N1CC[C@H]1C(=O)N[C@H](CC1CCCCC1)C(=O)N[C@@H](Cc1csc2ccccc12)C(=O)NCCc1ccccc1 [Compound 73, Ac-Phe-Orn-Aze-cha-Bta-NH—CH2—CH2-Ph] (Ac-F[Orn][Aze][dCha][Bta]-NHPhenethyl)",200 to 2000 nM
12,"NCCC[C@H](NC(=O)[C@@H](N)Cc1ccccc1)C(=O)N1CCC[C@H]1C(=O)N[C@H](CC1CCCCC1)C(=O)N[C@@H](Cc1c[nH]c2ccccc12)C(=O)N[C@@H](Cc1ccccc1)C(N)=O [Compound 74, H-Phe-Orn-Pro-cha-Trp-Phe-NH2] (H-F[Orn]P[dCha]WF-NH2)",50 to 200 nM

# Results, then the compound that gave them:
row,IC50,SMILES
1,10 to 20 nM,"CC(=O)N[C@@H](Cc1cccs1)C(=O)N[C@@H](CCCN)C(=O)N1CC[C@H]1C(=O)N[C@H](CC1CCCCC1)C(=O)N[C@@H](Cc1csc2ccccc12)C(=O)N[C@@H](Cc1ccccc1)C(N)=O [Compound 66, Ac-Thi-Orn-Aze-cha-Bta-Phe-NH2] (Ac-[2Thi][Orn][Aze][dCha][Bta]F-NH2)"
2,200 to 2000 nM,"CC(=O)N[C@@H](Cc1ccccc1)C(=O)N[C@@H](CCCN)C(=O)N1CCC[C@H]1C(=O)N[C@H](CC1CCCCC1)C(=O)N[C@@H](Cc1c[nH]c2ccccc12)C(=O)N[C@@H](Cc1ccc(C(C)(C)C)cc1)C(N)=O [Compound 68, Ac-Phe-Orn-Pro-cha-Trp-Eap-NH2] (Ac-F[Orn]P[dCha]W[Phe(4-tBu)]-NH2)"
3,50 to 200 nM,"CN(C)[C@@H](Cc1ccccc1)C(=O)N[C@@H](CCCN)C(=O)N1CCC[C@H]1C(=O)N[C@H](CC1CCCCC1)C(=O)N[C@@H](Cc1c[nH]c2ccccc12)C(=O)N[C@@H](Cc1ccccc1)C(N)=O [Compound 69, Me2-Phe-Orn-Pro-cha-Trp-Phe-NH2] (NMe2Phe-[Orn]P[dCha]WF-NH2)"
4,200 to 2000 nM,"NCCC[C@H](NC(=O)CC(c1ccccc1)c1ccccc1)C(=O)N1CCC[C@H]1C(=O)N[C@H](CC1CCCCC1)C(=O)N[C@@H](Cc1c[nH]c2ccccc12)C(=O)N[C@@H](Cc1ccccc1)C(N)=O [Compound 70, Ph2-CH—CH2—CO-Orn-Pro-cha-Trp-Phe-NH2] ({Propanoyl(3,3-Ph2)}-[Orn]P[dCha]WF-NH2)"
5,50 to 200 nM,"CN[C@@H](Cc1ccccc1)C(=O)N[C@@H](CCCN)C(=O)N1CCC[C@H]1C(=O)N[C@H](CC1CCCCC1)C(=O)N[C@@H](Cc1c[nH]c2ccccc12)C(=O)N[C@@H](Cc1ccccc1)C(N)=O [Compound 75, H—Me-Phe-Orn-Pro-cha-Trp-Phe-NH2] (H-[NMeF][Orn]P[dCha]WF-NH2)"
6,200 to 2000 nM,"CCCCNC(=O)N[C@@H](Cc1ccccc1)C(=O)N[C@@H](CCCN)C(=O)N1CCC[C@H]1C(=O)N[C@H](CC1CCCCC1)C(=O)N[C@@H](Cc1c[nH]c2ccccc12)C(=O)N[C@@H](Cc1ccccc1)C(N)=O [Compound 76, Bu-NH—CO-Phe-Orn-Pro-cha-Trp-Phe-NH2] ({NHBu-CO}-F[Orn]P[dCha]WF-NH2)"
7,50 to 200 nM,"CC(=O)N[C@@H](Cc1cccs1)C(=O)N[C@@H](CCCN)C(=O)N1CCC[C@H]1C(=O)N[C@H](CC1CCCCC1)C(=O)N[C@@H](Cc1c[nH]c2ccccc12)C(=O)N[C@@H](Cc1ccccc1)C(N)=O [Compound 77, Ac-Thi-Orn-Pro-cha-Trp-Phe-NH2] (Ac-[2Thi][Orn]P[dCha]WF-NH2)"
8,50 to 200 nM,"CC(=O)N[C@H](C(=O)N[C@@H](CCCN)C(=O)N1CCC[C@H]1C(=O)N[C@H](CC1CCCCC1)C(=O)N[C@@H](Cc1c[nH]c2ccccc12)C(=O)N[C@@H](Cc1ccccc1)C(N)=O)C(c1ccccc1)c1ccccc1 [Compound 78, Ac-Ebw-Orn-Pro-cha-Trp-Phe-NH2] (Ac-[Dip][Orn]P[dCha]WF-NH2)"
9,50 to 200 nM,"CC(=O)N[C@@H](Cc1ccccc1)C(=O)N[C@@H](CCCN)C(=O)N[C@@H](C)C(=O)N[C@H](CC1CCCCC1)C(=O)N[C@@H](Cc1c[nH]c2ccccc12)C(=O)N[C@@H](Cc1ccccc1)C(N)=O [Compound 79, Ac-Phe-Orn-Ala-cha-Trp-Phe-NH2] (Ac-F[Orn]A[dCha]WF-NH2)"
